Test results: patent US9273058B2 (BRISTOL-MYERS SQUIBB COMPANY, priority 2013, dated 2016)
Like-named read-outs stand apart in the source and are kept apart here.

Key:
[1] = molecular target: CK1δ (Homo sapiens, UniProt P48730); assay: CK1δ kinase assay (Caliper LabChip electrophoretic separation of fluoresceinated peptide substrate and product); type: biochemical; conditions: 200 pM CK1δ, 50 μM ATP, 1.5 μM peptide, 22 hours at room temperature
Summary of the method: (§1)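 Eleven-concentration compound series in kinase reactions run for 22 hours at room temperature. Terminated with EDTA, with product conversion read by electrophoretic separation. Non-linear regression gave IC50.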

[2] = molecular target: CK1ε (Homo sapiens, UniProt P49674); assay: CK1ε kinase assay (Caliper LabChip electrophoretic separation of fluoresceinated peptide substrate and product); type: biochemical; conditions: 200 pM CK1ε, 50 μM ATP, 1.5 μM peptide, 22 hours at room temperature
Sequence of CK1ε (P49674 whole entry): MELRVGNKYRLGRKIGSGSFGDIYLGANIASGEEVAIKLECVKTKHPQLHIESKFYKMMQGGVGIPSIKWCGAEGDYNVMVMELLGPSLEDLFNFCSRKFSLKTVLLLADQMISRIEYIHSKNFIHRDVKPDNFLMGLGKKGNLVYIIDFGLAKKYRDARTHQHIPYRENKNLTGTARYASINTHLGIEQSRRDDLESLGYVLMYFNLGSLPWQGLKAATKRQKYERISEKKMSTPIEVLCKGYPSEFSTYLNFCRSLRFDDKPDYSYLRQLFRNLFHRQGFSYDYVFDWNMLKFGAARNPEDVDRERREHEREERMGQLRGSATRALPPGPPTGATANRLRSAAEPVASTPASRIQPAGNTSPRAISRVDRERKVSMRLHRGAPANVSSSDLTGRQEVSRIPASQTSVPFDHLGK
Summary of the method: as §1

Sequence of CK1δ (P48730 whole entry): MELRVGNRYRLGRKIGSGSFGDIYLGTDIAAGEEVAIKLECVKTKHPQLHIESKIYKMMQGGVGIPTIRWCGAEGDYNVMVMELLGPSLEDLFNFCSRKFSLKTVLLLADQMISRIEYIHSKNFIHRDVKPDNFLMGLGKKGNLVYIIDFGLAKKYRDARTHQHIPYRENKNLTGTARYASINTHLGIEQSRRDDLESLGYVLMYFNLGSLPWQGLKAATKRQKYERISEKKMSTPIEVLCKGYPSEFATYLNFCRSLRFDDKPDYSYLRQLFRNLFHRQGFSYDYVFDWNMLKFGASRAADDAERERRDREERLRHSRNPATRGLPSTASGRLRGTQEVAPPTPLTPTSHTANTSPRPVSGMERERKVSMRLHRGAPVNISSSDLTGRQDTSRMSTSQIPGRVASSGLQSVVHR

Row | IC50 ([1]; read-out: CK1δ IC50 range) [nM] | IC50 ([2]; read-out: CK1ε IC50 range) [nM] | IC50 ([1]; read-out: CK1δ) [nM] | IC50 ([2]; read-out: CK1ε) [nM] | SMILES
1 | 0.01 to 10 | 0.01 to 10 |  |  | CS(=O)(=O)[C@H]1C[C@@H](NC(=O)N2CCn3nc(-c4cccc(Cl)c4)c(C(N)=O)c3C2)C1 [Compound 273, 2-(3-Chlorophenyl)-N^5-((1s,3s)-3-(methylsulfonyl)cyclobutyl)-6,7-dihydropyrazolo[1,5-a] pyrazine-3,5(4H)-dicarboxamide]
2 | 0.01 to 10 | 0.01 to 10 |  |  | CS(=O)(=O)[C@H]1C[C@@H](NC(=O)N2CCn3nc(-c4ccc(Cl)c(Cl)c4)c(C(N)=O)c3C2)C1 [Compound 274, 2-(3,4-Dichlorophenyl)-N^5-((1s,3s)-3-(methylsulfonyl)cyclobutyl)-6,7-dihydropyrazolo[1,5-a] pyrazine-3,5(4H)-dicarboxamide]
3 | 0.01 to 10 | 0.01 to 10 |  |  | C[C@]1(NC(=O)N2CCn3nc(-c4ccc(F)c(Cl)c4)c(C(N)=O)c3C2)C[C@H](F)C1 [Compound 275, 2-(3-Chloro-4-fluorophenyl)-N^5-((1r,3r)-3-fluoro-1-methylcyclobutyl)-6,7-dihydropyrazolo[1,5-a]pyrazine-3,5(4H)-dicarboxamide]
4 | 0.01 to 10 | 0.01 to 10 |  |  | NC(=O)c1c(-c2ccc(F)c(Cl)c2)nn2c1CN(C(=O)N[C@H]1C[C@@H](c3ccc(F)cc3)C1)CC2 [Compound 276, 2-(3-Chloro-4-fluorophenyl)-N^5-((1s,3s)-3-(4-fluorophenyl)cyclobutyl)-6,7-dihydropyrazolo[1,5-a]pyrazine-3,5(4H)-dicarboxamide]
5 | 0.01 to 10 | 0.01 to 10 |  |  | NC(=O)c1c(-c2cccc(Cl)c2)nn2c1CN(C(=O)N[C@H]1C[C@@H](c3ccc(F)cc3)C1)CC2 [Compound 277, 2-(3-Chlorophenyl)-N^5-((1s,3s)-3-(4-fluorophenyl)cyclobutyl)-6,7-dihydropyrazolo[1,5-a] pyrazine-3,5(4H)-dicarboxamide]
6 | 0.01 to 10 | 0.01 to 10 |  |  | NC(=O)c1c(-c2ccc(Cl)c(Cl)c2)nn2c1CN(C(=O)N[C@H]1C[C@@H](c3ccc(F)cc3)C1)CC2 [Compound 278, 2-(3,4-Dichlorophenyl)-N^5-((1s,3s)-3-(4-fluorophenyl)cyclobutyl)-6,7-dihydropyrazolo[1,5-a] pyrazine-3,5(4H)-dicarboxamide]
7 | 0.01 to 10 | 0.01 to 10 |  |  | COc1ccc([C@H]2C[C@@H](NC(=O)N3CCn4nc(-c5ccc(F)c(Cl)c5)c(C(N)=O)c4C3)C2)cc1 [Compound 279, 2-(3-Chloro-4-fluorophenyl)-N^5-((1s,3s)-3-(4-methoxyphenyl)cyclobutyl)-6,7-dihydropyrazolo[1,5-a]pyrazine-3,5(4H)-dicarboxamide]
8 | 0.01 to 10 | 0.01 to 10 |  |  | COc1ccc([C@H]2C[C@@H](NC(=O)N3CCn4nc(-c5ccc(Cl)c(Cl)c5)c(C(N)=O)c4C3)C2)cc1 [Compound 280, 2-(3,4-dichlorophenyl)-N^5-((1s,3s)-3-(4-methoxyphenyl)cyclobutyl)-6,7-dihydropyrazolo[1,5-a] pyrazine-3,5(4H)-dicarboxamide]
9 | 0.01 to 10 | 0.01 to 10 |  |  | COc1ccc([C@H]2C[C@@H](NC(=O)N3CCn4nc(-c5cccc(Cl)c5)c(C(N)=O)c4C3)C2)cc1 [Compound 281, 2-(3-Chlorophenyl)-N^5-((1s,3s)-3-(4-methoxyphenyl)cyclobutyl)-6,7-dihydropyrazolo[1,5-a] pyrazine-3,5(4H)-dicarboxamide]
10 | 0.01 to 10 | 0.01 to 10 |  |  | N#Cc1ccc([C@H]2C[C@@H](NC(=O)N3CCn4nc(-c5ccc(Cl)c(Cl)c5)c(C(N)=O)c4C3)C2)cc1 [Compound 283, N^5-((1s,3s)-3-(4-Cyanophenyl)cyclobutyl)-2-(3,4-dichlorophenyl)-6,7-dihydropyrazolo[1,5-a]pyrazine-3,5(4H)-dicarboxamide]
11 | 0.01 to 10 | 0.01 to 10 |  |  | N#Cc1ccc([C@H]2C[C@@H](NC(=O)N3CCn4nc(-c5cccc(Cl)c5)c(C(N)=O)c4C3)C2)cc1 [Compound 284, 2-(3-Chlorophenyl)-N^5-((1s,3s)-3-(4-cyanophenyl)cyclobutyl)-6,7-dihydropyrazolo[1,5-a] pyrazine-3,5(4H)-dicarboxamide]
12 | 0.01 to 10 | 0.01 to 10 |  |  | CC1(C)CC(NC(=O)N2CCn3nc(-c4ccc(F)c(Cl)c4)c(C(N)=O)c3C2)C1 [Compound 285, 2-(3-Chloro-4-fluorophenyl)-N^5-(3,3-dimethylcyclobutyl)-6,7-dihydropyrazolo[1,5-a]pyrazine-3,5(4H)-dicarboxamide]
13 | 0.01 to 10 | 0.01 to 10 |  |  | CC1(C)CC(NC(=O)N2CCn3nc(-c4cccc(Cl)c4)c(C(N)=O)c3C2)C1 [Compound 286]
14 | 0.01 to 10 | 0.01 to 10 |  |  | CC1(C)CC(NC(=O)N2CCn3nc(-c4ccc(Cl)c(Cl)c4)c(C(N)=O)c3C2)C1 [Compound 287, 2-(3,4-Dichlorophenyl)-N^5-(3,3-dimethylcyclobutyl)-6,7-dihydropyrazolo[1,5-a] pyrazine-3,5(4H)-dicarboxamide]
15 | 0.01 to 10 | 0.01 to 10 | 0.9 | 1.4 | NC(=O)c1c(-c2ccc(F)c(Cl)c2)nn2c1CN(C(=O)NC1CC(F)(F)C1)CC2 [Compound 291, 2-(3-Chloro-4-fluorophenyl)-N^5-(3,3-difluorocyclobutyl)-6,7-dihydropyrazolo[1,5-a]pyrazine-3,5(4H)-dicarboxamide]
16 | 10 to 100 | 10 to 100 |  |  | NC(=O)c1c(-c2cccc(Cl)c2)nn2c1CN(C(=O)NC1CC(F)(F)C1)CC2 [Compound 292, 2-(3-Chlorophenyl)-N^5-(3,3-difluorocyclobutyl)-6,7-dihydropyrazolo[1,5-a]pyrazine-3,5(4H)-dicarboxamide]
17 | 0.01 to 10 | 0.01 to 10 |  |  | NC(=O)c1c(-c2cc(Cl)cc(Cl)c2)nn2c1CN(C(=O)NC1CC(F)(F)C1)CC2 [Compound 293, 2-(3,5-Dichlorophenyl)-N^5-(3,3-difluorocyclobutyl)-6,7-dihydropyrazolo[1,5-a] pyrazine-3,5(4H)-dicarboxamide]
18 | 0.01 to 10 | 0.01 to 10 |  |  | NC(=O)c1c(-c2ccc(Cl)c(Cl)c2)nn2c1CN(C(=O)NC1CC(F)(F)C1)CC2 [Compound 294, 2-(3,4-Dichlorophenyl)-N^5-(3,3-difluorocyclobutyl)-6,7-dihydropyrazolo[1,5-a] pyrazine-3,5(4H)-dicarboxamide]
19 | 0.01 to 10 | 0.01 to 10 |  |  | NC(=O)c1c(-c2cc(F)cc(Cl)c2)nn2c1CN(C(=O)NC1CC(F)(F)C1)CC2 [Compound 295, 2-(3-Chloro-5-fluorophenyl)-N^5-(3,3-difluorocyclobutyl)-6,7-dihydropyrazolo[1,5-a] pyrazine-3,5(4H)-dicarboxamide]
20 | 0.01 to 10 | 0.01 to 10 |  |  | CC1(NC(=O)N2CCn3nc(-c4ccc(F)c(Cl)c4)c(C(N)=O)c3C2)CC(F)(F)C1 [Compound 296, 2-(3-Chloro-4-fluorophenyl)-N^5-(3,3-difluoro-1-methylcyclobutyl)-6,7-dihydropyrazolo[1,5-a]pyrazine-3,5(4H)-dicarboxamide]
21 | 0.01 to 10 | 0.01 to 10 | 0.5 | 0.3 | CC1(NC(=O)N2CCn3nc(-c4ccc(Cl)c(Cl)c4)c(C(N)=O)c3C2)CC(F)(F)C1 [Compound 297, 2-(3,4-Dichlorophenyl)-N^5-(3,3-difluoro-1-methylcyclobutyl)-6,7-dihydropyrazolo[1,5-a] pyrazine-3,5(4H)-dicarboxamide]
